Results published in patent US20110229553A1, “Plant Extract with Pharmacological Profile for Treating or Preventing Diseases, Dysfunctions and Disorders of the Central Nervous System, Neurodegenerative Disorders and Sequel from Vascular Dementia” (priority 2010, published 2011).

Tested on: BALB/c mice MPTP induced tremor
Assay: MPTP-induced tremor in BALB/c mice
Type: in vivo
Settings: extract 25 or 50 mg/kg, apomorphine 3 mg/kg
Protocol: Animals: Male adult mice, C57BL/6 and BALB/c strain (FEEPS) were used and maintain with water and foot ad libitum under controlled environment.
Treatments in BALB/c: MPTP (1-methyl-4-phenyl-1,2,3,6-tetrahydropyridine) 60 mg/kg (2×30 mg/kg) was administered intraperitonially (i.p.), twice, 16 h apart. Saline, DMSO 20%, Ptychopetalum olacoides extract 50 mg/kg (2×25 mg/kg), POEE 25 mg/kg (2×12.5 mg/kg) and apomorphine 3 mg/kg (2×1.5 mg/kg) were given 30 min before each MPTP administration. The animals received the first injections at 17:00 h and the second at 09:00 h the next day. The volume of injection was […] body weight. N=6.
Tremor in C57BL/6 and in BALB/c: Tremors were observed immediately after the administration of the second MPTP dose, with animals placed in a clear Plexiglas box (20 cm×20 cm×20 cm) for 45 min; tremor scores were noted every 3 min, with the highest score considered for the period. […]

For `CN1CCc2cccc3c2[C@H]1Cc1ccc(O)c(O)c1-3` [apomorphine], the total tremor duration was “not affected”.
